The source of these data is patent US20250255876A1, “COMPOSITIONS AND METHODS FOR CANCER TREATMENT” (ARIEL SCIENTIFIC INNOVATIONS LTD., priority 2021, published 2025).

The test system of data set [1] is A549 cells. Briefly: Colony survival assay, A549 cells. The data set is classed as cell-based. The note with it: for survival rate, combined treatment: A549, 5 μM cisplatin + 50 μM compound; for toxicity / cell viability, compound alone: A549, 50 μM compound alone; for sensitization effect to cisplatin: A549, cisplatin + 50 μM compound; for cell survival with cisplatin plus inhibitor: A549, varying cisplatin, 48 hours. As to the method:
(§1) H1975 cells were plated in 24-well plates at 50,000 cells/well (for 50 µM inhibitor treatment) or 20,000 cells/well (for […] inhibitor treatment). U2OS and A549 cells were plated in 24-well plates at 5000 cells/well. The next day, cells were treated with varying concentrations of cisplatin, either with or without added inhibitor compound. After 48 hours of cisplatin+compound treatment, the cells were washed 3 times with PBS×1 and fresh media applied. After 4 days of recovery, the cells were stained with methylene blue and imaged using a Nikon SMZ25 stereomicroscope. The images were analyzed using the ImageJ (National Institutes of Health) area measurement tool to quantify total colony size in each well.
Cells were plated in 24-well plates at 50,000 cells/well (H1975 line) or 10,000 cells/well (A549 line). The next day, cells were treated with varying concentrations of cisplatin ([…]), with or without 50 μM compound. For the untreated control wells containing only cisplatin, DMSO was applied in place of the compound. After 48 hours of cisplatin+compound treatment, the cells were washed 3 times with PBS and fresh media was applied. After 4 days of recovery, the cells were stained with methylene blue and imaged using a Nikon SMZ25 stereomicroscope. The images were analyzed using the ImageJ (National Institutes of Health) area measurement tool to quantify total colony size in each well.
In order to assess the ability of the selected compounds to sensitize cells during cisplatin treatment, the inventors established a colony survival assay comparing the viability of cells treated with cisplatin alone or with combined treatment of cisplatin and 50 μM compound. For the compound screen, we used two lung cancer cell lines: human non-small lung carcinoma H1975 cells, and epithelial lung adenocarcinoma A549 cells. Out of ten compounds tested, compounds c #2 and c #3 were identified with the most significant sensitization effect and were chosen for future characterization. […] Survival rate was reduced from 90% in 5 μM cisplatin treatment to 50% survival in the combined treatment (FIGS. 11A-B). H1975 cells presented similar behavior following doxorubicin treatment (FIG. 11C). IC50 was calculated using linear regression, presenting a clear reduction of cisplatin's IC50 in all treatments.

Data set [2] deals with U2OS cells. Briefly: Colony survival assay, U2OS cells. Format: cell-based. The settings on record: varying cisplatin, 48 hours. The procedure: as §1
Data set [3] relates to B16F10 cells. Briefly: Colony survival assay, B16F10 cells. The data set is classed as cell-based, mouse. As to the method: (14B) Colony survival assay of H1975 cell line. (14C) Colony survival assay of A549 cell line. (14D) Colony survival assay of B16F10 cell line. All cell lines were treated with 50 μM c #3 and the indicated concentration of cisplatin for 48 h, then growth media was replaced with normal growth media with no compound. Cells were allowed to recover 4-5 days before staining. For all cell lines, colony survival assay n=3 independent experiments, SD=1. P value was calculated by two-way ANOVA multiple comparison. IC50 was calculated using linear regression for H1975 and A549, and sigmoidal regression for B16F10.
Colony survival assay to compare the relative survival rate of cells treated with cisplatin alone, or with combined treatment of cisplatin and 50 μM of compound 3 (see FIG. 1). Molecule presented preliminary promising results, We tested compound 3 (c #3) on different cancer cell lines: two lung cancer cell lines, (1) human non-small cell lung carcinoma H1975 cells, (2) epithelial lung adenocarcinoma A549 cells, and (3) mouse aggressive melanoma B16F10 cells.

Data set [4] has as its system γH2AX foci in B16F10 cells. Briefly: γH2AX foci immunofluorescence, B16F10 cells. The data set is classed as cell-based, mouse. As to the method: FIGS. 15A-15B3 present micrographs and graphs showing that c #3 increases DNA damage after combined treatment. (15A). Representative figures of TH2AX in A549 cells (left panel), H1975 (middle panel) and B16F10 (right panel) with different treatments as indicated. Quantification of A549 (15B1), H1975(15B2), and B16F10 cells(15B3)′ foci/cell in each treatment. The total number of cells scored is indicated. Error bars=1 SD, P-value was calculated by two-tailed t-test. In all experiments, A549 cells were treated with 10 μM cisplatin and H1975 and B16F10 cells with 5 μM cisplatin. All cell lines were co-treated with 50 μM of c #3. Cells were co-treated for 16 h before analysis.SD=1, The P-value was calculated using a one-tailed t-test.
Combined treatment of cisplatin with c #3 correlates with an increase in DNA damage. Levels of γ-H2AX foci, a marker for DNA double-strand breaks, were compared in H1975, A549 and B16F10 cell lines.

The test system of data set [5] is B16F10 cells. Briefly: B16F10 subcutaneous tumor in C57BL mice, intratumoral injection. The data set is classed as in vivo, mouse. The procedure: FIGS. 17A-17E are micrographs and graphs showing that C#3 prevents tumor growth. 2*106 B16F10 cells were injected to the left flank of C57BL mice. After three days different treatments, as indicated, were injected to the newly formed tumor. (17A) tumor size (mm3) was measured daily for each mouse. In the co-treatment, almost no change in tumor size was observed, in the first three days. (17B) representative images of three tumors from each treatment group. (17C) For each treatment the fold-change in the volume of each day was compared to day 0. […] (17D) The co-treated group presented less developed tumors, which comprised about 2-3% of mice weight. (17E) H&E staining of a representative tumor from each group. Number of mice for each group in this experiment: DMSO n=7, cisplatin n=10, cisplatin+c #3 n=10, c #3 n=9. SD=1. P-values were calculated by one-tailed t-test. C#3 prevents tumor growth. To test the effect of c #3 in-vivo, we used a […] mouse model of C57BL mice. B16F10 cells were injected to the mouse's left flank and allowed to form a subcutaneous tumor. Next, we injected directly to the tumor DMSO, cisplatin, cisplatin+c #3 1 mg/kg, or c #3 alone, and tumor size was measured each day, up to 6 days. […] DNA damage burden in these fast-growing tumors is high, and TLS inhibition using c #3 prevents repair and enhances cell death. […]

Entries after “also recorded” stand apart in the source; their conditions may differ.

For `CNc1nc(N2CCCCC2)nc(-n2cnc(SCC(N)=O)n2)n1` [Compound 2], in data set [1], the “survival rate, combined treatment” value stood at 50%; the “toxicity / cell viability, compound alone” value (“toxicity / cell viability” for short) is given as “no reduction in cell viability”; the “sensitization effect to cisplatin” value was “approximately twofold sensitization effect”; the “cell survival with cisplatin plus inhibitor” value is “reduction in cell survival”. Further, the “toxicity / cell viability” value in data set [1] (listed as c #2) is recorded as “caused no toxicity”. The “cell survival with cisplatin plus inhibitor” value in data set [2] is on record as “reduction in cell survival”.
For the compound `Cc1oc(-c2ccco2)nc1CC(=O)N[C@@H](C(=O)O)c1ccccc1` [Compound 3], in data set [3] (B16F10, 50 μM compound alone), the “toxicity, compound alone” value is listed as “caused no toxicity”. Also, the sensitization to cisplatin entry in data set [3] (B16F10, cisplatin + 50 μM c #3, 48 h) is “sensitization to cisplatin treatment”. Further, the “increase in γ-H2AX foci/cell in co-treated cells” value in data set [4] (B16F10, 5 μM cisplatin + 50 μM c #3, 16 h) is reported as 2 fold. In addition, the “γ-H2AX signal, c #3 alone” value in data set [4] (B16F10, c #3 alone) was “no effect on the γ-H2AX signal”. Also, in data set [1], the “survival rate, combined treatment” value was found to be 50%; the “toxicity / cell viability” value is given as “no reduction in cell viability”; the “sensitization effect to cisplatin” value was “approximately twofold sensitization effect”; the “cell survival with cisplatin plus inhibitor” value is on record as “reduction in cell survival”. Further, the “toxicity / cell viability” value in data set [1] (listed as c #3) is reported as “caused no toxicity”. The “cell survival with cisplatin plus inhibitor” value in data set [2] is recorded as “reduction in cell survival”. Further, the “tumor growth (tumor volume, fold-change), co-treatment” value in data set [5] (cisplatin 1 mg/kg + c #3 1 mg/kg injected into the tumor, listed as c #3) is “prevented tumor growth in the first three days; also recorded: significant growth inhibition when compared to all treatments”. Moreover, the “tumor histopathology (H&E), co-treatment” value in data set [5] (cisplatin + c #3 co-treated, two tumors from each group) is reported as “severe necrosis”.
